# Source: US20220369639A1, “Fungicide Mixtures” (LANXESS Deutschland GmbH, priority 2019, published 2022)
# Like-named read-outs stand apart in the source and are kept apart here.
# Tests used:
# Format in all cases: cell-based
# Fusarium solani = assay: Minimum Inhibitory Concentration (MIC) on nutrient agar petri dishes
# Source text: (§1) The term synergism is used when the action of a combination of antimicrobial substances is being evaluated.
# (§2) The synergism found for the mixtures according to the invention can be determined via the following mathematical mathematical formula (cf. F. C. Kull, P. C. Elisman, H. D.
# (§3) Qa=amount of component A in the active substance mixture which achieves the desired effect, i. e. no microbial growth,
# (§4) QA=amount of component A which, when used alone, suppresses the growth of the microorganisms,
# (§5) Qb=amount of component B in the active substance mixture which suppresses the growth of the microorganisms,
# (§6) QB=amount of component B which, when used alone, suppresses the growth of the microorganisms
# (§7) If the sum of the ratios for a mixture Qa/QA+Qb/QB=1, additivity is indicated; if it is <1, synergism has occurred; a value of >1 is indicative of antagonism.
# (§8) To determine the antimicrobial efficacy and synergy of active ingredients mixtures, the Minimum Inhibitory Concentration (MIC) of the active substances and their respective combinations were determined. The Minimum Inhibitory
# (§9) Concentration of a given antimicrobial compound or mixture is the lowest concentration expressed in […] (ppm) that under defined in vitro conditions inhibits the growth of a given micro-organism (for example bacteria, mould fungi, yeasts). The growth of the microorganisms is observed on petri dishes containing a defined nutrient agar. In the case of fungi, typical strains according to this test design for example would be species like those as indicated in tables 1a) and 1b)
# Aspergillus niger = assay: as above
# Source text: as §1, §2, §3, §4, §5, §6, §7, §8, §9
# [1] = tested on: Fungi Mix composed of the standard ASTM G 21-09 species; assay: Gypsum board mould resistance, ASTM G 21-09 (core protection); settings: for Observed growth rating, Fungi Mix: facing papers not treated, 4 weeks at 28-30° C.
# Source text: The fungicide mixtures as of the present invention and of the comparison example to be tested were made as follows: The respective actives were mixed in their respective weight ratio (see table 2) together with water and 1 wt. % dispersant Tristyrylphenol ethoxylate (in form of Soprophor® S 25), as thickener 0.1 wt. % of Xanthan gum and 1 wt. % wetting agent non-ionic EO/PO-Copolymer (in form of Pluronic 127 F), where the wt. % are based on the entire mixture and were homogenized with a high speed mixer (IKA Ultra Turrax Labor Dispergator) to give an aqueous suspension having a viscosity measured in accordance with CIPAC 192 method of 500-600 mPas and a particle size of the biocides of smaller than 30 μm measured in accordance with the CIPAC 187 method.
# For examination of the antifungal performance of the inventive mixtures the various mixtures prepared above were tested. The testing directly made in gypsum boards provides realistic and practically relevant data for evaluation. To achieve such data, gypsum boards were produced in the laboratory. For this purpose, a typical slurry recipe as given below for board production is used.
# The gypsum slurry is formed by mixing the dry components and the wet components together. The slurry is then mixed to achieve a homogeneous consistency. The fungicide mixtures as prepared above are then incorporated into the wet gypsum slurry respectively (total amount of actives in ppm see table 2) by adding and thoroughly mixing. For sandwiching the gypsum core, untreated cardboard (without fungicide) with a grammage of appr. 180 g/m^2 was used and after assembly of the plate the hand sheets are dried.
# The mould resistance of the gypsum board samples was evaluated according to the test method ASTM G 21-09. Following to this method, the manufactured gypsum boards as described above and after having been cut to an adequate size are placed on an agarplate and superficially are spoiled with fungal spores for a determined period of time of at the most 4 weeks. The respective total amount of actives in ppm based in gypsum/plaster ([…]) can be seen in the table.
# Spore suspensions are produced for each fungi (spore concentrations of approximately 10^6/ml). Organisms which are included in ASTM G 21 comprise Aspergillus niger (ATCC 9642), Aureobasidium pullulans (ATCC 15233) Chaetomium globosum (ATCC 6205), Gliocladium virens (ATCC 6459) and Penicillium pinophilium (ATCC 11797) (as pure culture but also as mixed inoculum), however any other fungi species known to be able to grow in gypsum boards may be used in addition or instead. Mineral agar (according to ASTM G21 of 2009) was used as growth media in the agar plates. Before inoculation the gypsum board hand sheets are cut into pieces of appr. 5×5 cm.
# For every concentration level, 3 test pieces are used in the test. Each sample is placed in a separate petri dish and then inoculated with the fungi mixture. The samples are then incubated at 28-30° C. for 28 days. Pre-reading of the samples may be performed at approximately 10 days after inoculation. The activity of the treatments may be assessed visually, using a rating system of 0-4 for growth inhibition of fungal growth.
# Results: The results as recorded after 4 weeks testing at 28-30° C. according to the requirements of test method ASTM G 21 are summarized in table 2.
SMILES,MIC (Fusarium solani),MIC (Fusarium solani; read-out: MIC),MIC (Aspergillus niger),MIC (Aspergillus niger; read-out: MIC),"Observed growth rating, Fungi Mix ([1]; 25 ppm on dry stucco in gypsum core)","Observed growth rating, Fungi Mix ([1]; 50 ppm on dry stucco in gypsum core)","Observed growth rating, Fungi Mix ([1]; 100 ppm on dry stucco in gypsum core)","Observed growth rating, Fungi Mix ([1]; 200 ppm on dry stucco in gypsum core)","Observed growth rating, Fungi Mix ([1]; 300 ppm on dry stucco in gypsum core)","Control of fungi growth on gypsum board (interpretation of Table 2) ([1]; tested concentration range 25-300 ppm, comparison with TBZ/PYM mixtures)"
"Cc1cc(C)nc(Nc2ccccc2)n1 [PYM, pyrimethanil]",1501 ppm,1000 µg/mL,500 ppm,250 µg/mL,,,,,,
"c1ccc2[nH]c(-c3cscn3)nc2c1 [TBZ, thiabendazole]",,250 µg/mL,,,4 (Heavy growth (60% to complete coverage)),4 (Heavy growth (60% to complete coverage)),4 (Heavy growth (60% to complete coverage)),4 (Heavy growth (60% to complete coverage)),3 (Medium growth (30 to 60%)),not good enough
